Experiments:
[1] = DRUGMATRIX: GABAA, Chloride Channel, TBOB radioligand binding (ligand: [3H] TBOB); format: cell membranes, Rattus norvegicus, Wistar, Cerebral cortex, Membrane; conditions: Not Active = under 50% inhibition at 10 µM
[2] = molecular target: Tyrosine-protein kinase Lck (Homo sapiens, UniProt P06239); assay: DRUGMATRIX: Protein Tyrosine Kinase, LCK enzyme inhibition (substrate: Poly(Glu:Tyr)); format: cell-based, Insect cells; conditions: insect cells; Not Active = under 50% inhibition at 10 µM
Chain of Tyrosine-protein kinase Lck (P06239 whole entry): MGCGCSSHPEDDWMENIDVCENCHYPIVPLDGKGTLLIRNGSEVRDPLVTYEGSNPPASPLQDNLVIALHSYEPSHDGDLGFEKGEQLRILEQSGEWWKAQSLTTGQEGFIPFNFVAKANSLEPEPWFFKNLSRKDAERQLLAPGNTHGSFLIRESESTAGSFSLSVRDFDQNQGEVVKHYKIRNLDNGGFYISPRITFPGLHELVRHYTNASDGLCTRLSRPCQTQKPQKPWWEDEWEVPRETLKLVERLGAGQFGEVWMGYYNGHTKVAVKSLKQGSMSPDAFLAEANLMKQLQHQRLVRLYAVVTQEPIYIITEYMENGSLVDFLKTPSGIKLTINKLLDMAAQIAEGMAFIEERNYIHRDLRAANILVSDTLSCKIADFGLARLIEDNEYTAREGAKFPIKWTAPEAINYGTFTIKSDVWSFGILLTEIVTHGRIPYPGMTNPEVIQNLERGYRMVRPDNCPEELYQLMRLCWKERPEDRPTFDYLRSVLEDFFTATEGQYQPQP

Endothelin-1 receptor = molecular target: T1, Endothelin-1 receptor (Homo sapiens, UniProt P25101); format: cell membranes, Membrane; conditions: cho-k1; further: in other assays of this panel Not Active means under 50% inhibition at 10 µM
T1 sequence (P25101 whole entry): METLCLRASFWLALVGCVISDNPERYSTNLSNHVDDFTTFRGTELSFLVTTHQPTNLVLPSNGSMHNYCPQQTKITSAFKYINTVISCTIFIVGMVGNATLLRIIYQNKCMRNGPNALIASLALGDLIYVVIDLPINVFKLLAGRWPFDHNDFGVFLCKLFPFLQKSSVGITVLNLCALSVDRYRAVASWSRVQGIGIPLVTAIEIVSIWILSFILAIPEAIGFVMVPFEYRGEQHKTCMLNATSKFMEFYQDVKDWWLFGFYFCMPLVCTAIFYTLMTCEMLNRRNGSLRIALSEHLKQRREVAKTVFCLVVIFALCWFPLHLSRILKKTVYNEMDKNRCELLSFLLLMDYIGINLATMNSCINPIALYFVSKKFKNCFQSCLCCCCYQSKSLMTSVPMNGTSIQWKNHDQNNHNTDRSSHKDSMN

Substance-P receptor = Substance-P receptor (Homo sapiens, UniProt P25103); format: cell membranes, Membrane; conditions: cho; further: in other assays of this panel Not Active means under 50% inhibition at 10 µM
Chain of Substance-P receptor (P25103 whole entry): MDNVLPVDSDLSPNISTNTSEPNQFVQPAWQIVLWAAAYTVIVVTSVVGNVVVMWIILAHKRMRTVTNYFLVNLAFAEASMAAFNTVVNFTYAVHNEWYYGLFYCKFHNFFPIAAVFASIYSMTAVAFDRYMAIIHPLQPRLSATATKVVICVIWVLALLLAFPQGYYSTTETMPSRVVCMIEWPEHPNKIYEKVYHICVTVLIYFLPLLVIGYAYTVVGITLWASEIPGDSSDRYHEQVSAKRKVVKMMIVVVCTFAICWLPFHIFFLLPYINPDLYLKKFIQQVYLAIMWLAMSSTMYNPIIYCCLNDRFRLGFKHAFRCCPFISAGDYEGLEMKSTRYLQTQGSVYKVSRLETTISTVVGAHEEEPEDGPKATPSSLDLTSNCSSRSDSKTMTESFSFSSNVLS

Progesterone receptor = molecular target: T2, Progesterone receptor (Bos taurus, UniProt Q690N0); assay: DRUGMATRIX: Progesterone radioligand binding (ligand: [3H] R-5020); format: tissue-based, Uterus; conditions: Not Active = under 50% inhibition at 10 µM
T2 sequence (Q690N0 whole entry): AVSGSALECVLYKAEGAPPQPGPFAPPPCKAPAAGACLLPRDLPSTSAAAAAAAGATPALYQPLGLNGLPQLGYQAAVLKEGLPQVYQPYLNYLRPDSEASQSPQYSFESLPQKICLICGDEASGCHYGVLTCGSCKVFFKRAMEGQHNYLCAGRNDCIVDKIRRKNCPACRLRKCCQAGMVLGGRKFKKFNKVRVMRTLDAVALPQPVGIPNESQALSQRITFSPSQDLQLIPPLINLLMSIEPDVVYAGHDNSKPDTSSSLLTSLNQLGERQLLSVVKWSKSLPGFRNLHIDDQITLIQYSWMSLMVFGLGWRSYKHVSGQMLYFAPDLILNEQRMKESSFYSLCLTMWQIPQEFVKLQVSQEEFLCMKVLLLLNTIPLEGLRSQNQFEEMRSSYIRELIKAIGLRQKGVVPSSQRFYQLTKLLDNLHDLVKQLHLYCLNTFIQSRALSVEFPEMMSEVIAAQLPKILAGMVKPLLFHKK

[3] = molecular target: 5-hydroxytryptamine receptor 6 (Homo sapiens, UniProt P50406); format: cell membranes, HeLa, Membrane; conditions: hela; further: in other assays of this panel Not Active means under 50% inhibition at 10 µM
Chain of 5-hydroxytryptamine receptor 6 (P50406 whole entry): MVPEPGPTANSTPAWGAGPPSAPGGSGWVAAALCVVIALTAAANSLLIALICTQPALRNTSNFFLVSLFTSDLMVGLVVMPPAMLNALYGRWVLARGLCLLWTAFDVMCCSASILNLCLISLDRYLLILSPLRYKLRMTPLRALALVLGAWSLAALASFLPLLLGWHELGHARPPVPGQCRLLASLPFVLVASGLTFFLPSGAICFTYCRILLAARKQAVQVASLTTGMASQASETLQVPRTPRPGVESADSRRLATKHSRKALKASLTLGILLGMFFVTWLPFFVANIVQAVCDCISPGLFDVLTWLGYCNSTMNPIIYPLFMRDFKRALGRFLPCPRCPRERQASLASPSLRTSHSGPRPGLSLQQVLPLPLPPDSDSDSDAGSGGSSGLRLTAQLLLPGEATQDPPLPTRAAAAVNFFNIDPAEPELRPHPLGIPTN

Cannabinoid receptor 1 = Cannabinoid receptor 1 (Homo sapiens, UniProt P21554); format: cell membranes, Chem-1, Membrane; conditions: chem-1; further: in other assays of this panel Not Active means under 50% inhibition at 10 µM
Chain of Cannabinoid receptor 1 (P21554 whole entry): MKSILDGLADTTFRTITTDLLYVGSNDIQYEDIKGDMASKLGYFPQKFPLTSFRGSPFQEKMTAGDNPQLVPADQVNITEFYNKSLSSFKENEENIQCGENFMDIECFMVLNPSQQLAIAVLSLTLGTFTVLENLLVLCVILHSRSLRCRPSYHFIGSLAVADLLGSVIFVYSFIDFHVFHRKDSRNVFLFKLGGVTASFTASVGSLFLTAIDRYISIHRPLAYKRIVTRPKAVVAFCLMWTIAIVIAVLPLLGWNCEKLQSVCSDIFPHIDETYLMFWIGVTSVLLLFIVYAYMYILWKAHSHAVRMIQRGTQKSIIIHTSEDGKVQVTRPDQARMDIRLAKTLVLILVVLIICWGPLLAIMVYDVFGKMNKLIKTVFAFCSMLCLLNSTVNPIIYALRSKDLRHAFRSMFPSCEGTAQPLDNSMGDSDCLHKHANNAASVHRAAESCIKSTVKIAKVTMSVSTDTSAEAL

Cc1cc2cc3c(C)cc(=O)oc3c(C)c2o1 [TRIOXSALEN]
Not Active: IC50 [1] | Ki [1] | IC50 [2] | IC50 (Endothelin-1 receptor) | IC50 (Substance-P receptor) | IC50 (Progesterone receptor) | IC50 [3] | IC50 (Cannabinoid receptor 1)

CCCC(CCC)C(=O)O [VALPROIC ACID]
Not Active: IC50 [1] | Ki [1] | IC50 [2] | IC50 (Endothelin-1 receptor) | IC50 (Substance-P receptor) | IC50 (Progesterone receptor) | IC50 [3] | IC50 (Cannabinoid receptor 1)

CCC1=C[C@@H]2CN(C1)Cc1c([nH]c3ccccc13)[C@@](C(=O)OC)(c1cc3c(cc1OC)N(C)[C@H]1[C@@](O)(C(=O)OC)[C@H](OC(C)=O)[C@]4(CC)C=CCN5CC[C@]31[C@@H]54)C2 [VINORELBINE]
Not Active: IC50 [1] | Ki [1] | IC50 [2] | IC50 (Endothelin-1 receptor) | IC50 (Substance-P receptor) | IC50 (Progesterone receptor) | IC50 [3] | IC50 (Cannabinoid receptor 1)

CADMIUM DICHLORIDE
Not Active: IC50 [1] | Ki [1] | IC50 [2] | Ki [2] | IC50 (Endothelin-1 receptor) | Ki (Endothelin-1 receptor) | IC50 (Substance-P receptor) | Ki (Substance-P receptor) | IC50 (Progesterone receptor) | Ki (Progesterone receptor) | IC50 [3] | Ki [3] | IC50 (Cannabinoid receptor 1) | Ki (Cannabinoid receptor 1)
